Measured values from BindingDB's records for doi:10.1021/jm00055a002 (Eli Lilly, 1993).
pIC50: −log10 of the molar value. Where a SMILES comes first, the peptide text is derived from it. [ ]: non-standard residue; d: D form. The star is where a group is joined. dHpg = N[C@@H](C(=O)O)c1ccc(O)cc1; Boc = CC(C)(C)OC(=O)*

Tests used:
[1] = molecular target: Tissue-type plasminogen activator (Homo sapiens) (UniProt P00750); assay: Inhibitory activity against tissue-type plasminogen activator
[2] = molecular target: Tissue-type plasminogen activator (Homo sapiens) (UniProt P00750); assay: Compound was tested in vitro for inhibitory activity against t-PA (tissue plasminogen activator)

Chain of Tissue-type plasminogen activator (Homo sapiens) (P00750 whole entry, looked up): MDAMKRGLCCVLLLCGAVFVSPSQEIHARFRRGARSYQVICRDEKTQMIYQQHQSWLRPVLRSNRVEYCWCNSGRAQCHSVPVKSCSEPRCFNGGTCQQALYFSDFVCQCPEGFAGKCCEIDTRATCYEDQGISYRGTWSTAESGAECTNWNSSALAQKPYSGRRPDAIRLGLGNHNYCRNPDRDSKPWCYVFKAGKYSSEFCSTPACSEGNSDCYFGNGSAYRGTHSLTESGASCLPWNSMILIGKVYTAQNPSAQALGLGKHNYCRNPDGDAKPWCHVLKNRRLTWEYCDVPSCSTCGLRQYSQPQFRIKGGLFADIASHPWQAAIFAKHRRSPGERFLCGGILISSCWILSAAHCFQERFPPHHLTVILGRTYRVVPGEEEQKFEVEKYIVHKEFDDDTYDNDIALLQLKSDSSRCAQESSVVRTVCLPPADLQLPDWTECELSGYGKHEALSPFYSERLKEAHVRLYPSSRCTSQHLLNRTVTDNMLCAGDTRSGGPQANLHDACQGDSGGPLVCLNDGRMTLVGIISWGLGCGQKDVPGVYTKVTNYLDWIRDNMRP

| SMILES | pIC50 [2] | pIC50 [1] |
| --- | --- | --- |
| CC(C)(C)OC(=O)N[C@@H](C(=O)N1CCC[C@H]1C(=O)N[C@H](C=O)CCCN=C(N)N)c1ccc(O)cc1 [[2-[2-(1-Formyl-4-guanidino-butylcarbamoyl)-pyrrolidin-1-yl]-1-(4-hydroxy-phenyl)-2-oxo-ethyl]-carbamic acid tert-butyl ester] (Boc-[dHpg]-Pro-Arg-aldehyde) | – | 4.80 |
| CC(C)(C)OC(=O)NC(C(=O)N1CCC[C@H]1C(=O)NC(C=O)CCCNC(=N)N)c1cccc(C(F)(F)F)c1 (stereo not given in full) [[2-[2-(1-Formyl-4-guanidino-butylcarbamoyl)-pyrrolidin-1-yl]-2-oxo-1-(3-trifluoromethyl-phenyl)-ethyl]-carbamic acid tert-butyl ester] | 4.82 | – |
| CC(C)(C)OC(=O)NC(C(=O)N1CCC[C@H]1C(=O)NC(C=O)CCCNC(=N)N)c1ccc(Cl)c(Cl)c1 (stereo not given in full) [{1-(3,4-Dichloro-phenyl)-2-[2-(1-formyl-4-guanidino-butylcarbamoyl)-pyrrolidin-1-yl]-2-oxo-ethyl}-carbamic acid tert-butyl ester] | 4.51 | – |
| CC(C)(C)OC(=O)N[C@@H](C(=O)N1CCC[C@H]1C(=O)N[C@H](C=O)CCCN=C(N)N)c1ccc(F)cc1 [{1-(4-Fluoro-phenyl)-2-[2-(1-formyl-4-guanidino-butylcarbamoyl)-pyrrolidin-1-yl]-2-oxo-ethyl}-carbamic acid tert-butyl ester] | 4.74 | – |
| N=C(N)NCCC[C@@H](C=O)NC(=O)[C@@H]1CCCN1C(=O)C1CCc2ccccc2N1 (stereo not given in full) [1-(1,2,3,4-Tetrahydro-quinoline-2-carbonyl)-pyrrolidine-2-carboxylic acid (1-formyl-4-guanidino-butyl)-amide] | – | 3.18 |
| CN[C@@H](C(=O)N1CCC[C@H]1C(=O)N[C@H](C=O)CCCNC(=N)N)c1ccccc1 [(S)-1-((R)-2-Methylamino-2-phenyl-acetyl)-pyrrolidine-2-carboxylic acid ((S)-1-formyl-4-guanidino-butyl)-amide] | 4.38 | – |
| CC(C)(C)OC(=O)N[C@H](C(=O)N1CCC[C@H]1C(=O)N[C@H](C=O)CCCN=C(N)N)c1ccc(F)cc1 [{1-(4-Fluoro-phenyl)-2-[2-(1-formyl-4-guanidino-butylcarbamoyl)-pyrrolidin-1-yl]-2-oxo-ethyl}-carbamic acid tert-butyl ester] | 4.04 | – |

The next lines start with results.

| pIC50 [2] | SMILES | pIC50 [1] |
| --- | --- | --- |
| 4.92 | CC(C)(C)OC(=O)N[C@@H](C(=O)N1CCC[C@H]1C(=O)NC(C=O)CCCNC(=N)N)c1ccc2ccccc2c1 (stereo not given in full) [{2-[2-(1-Formyl-4-guanidino-butylcarbamoyl)-pyrrolidin-1-yl]-1-naphthalen-2-yl-2-oxo-ethyl}-carbamic acid tert-butyl ester] | – |
| 4.70 | CC(C)(C)OC(=O)N[C@@H](C(=O)N1CCC[C@H]1C(=O)NC(C=O)CCCNC(=N)N)c1cccc2ccccc12 (stereo not given in full) [{2-[2-(1-Formyl-4-guanidino-butylcarbamoyl)-pyrrolidin-1-yl]-1-naphthalen-1-yl-2-oxo-ethyl}-carbamic acid tert-butyl ester] | – |
| 3.07 | CO[C@H](C(=O)N1CCC[C@H]1C(=O)NC(C=O)CCCNC(=N)N)c1ccccc1 (stereo not given in full) [1-(2-Methoxy-2-phenyl-acetyl)-pyrrolidine-2-carboxylic acid (1-formyl-4-guanidino-butyl)-amide] | – |
